From the NIST ThermoML archive (doi:10.1021/je049612f)
Numbers after ± are expanded uncertainties.

Conditions: Gas, Vibrating wire viscometry

FS(F)(F)(F)(F)F [sulfur hexafluoride]
Conditions | viscosity [mPa·s]
350 K, 269.03 kPa | 0.0176 ± 0.00091
350 K, 295.24 kPa | 0.0176 ± 0.00091
350 K, 332.44 kPa | 0.01761 ± 0.00091
350 K, 363.13 kPa | 0.01762 ± 0.00091
350 K, 390.5 kPa | 0.01763 ± 0.00091
350 K, 418.5 kPa | 0.01765 ± 0.00091
350 K, 450.38 kPa | 0.01765 ± 0.00091
350 K, 485.3 kPa | 0.01766 ± 0.00091
350 K, 522.75 kPa | 0.01767 ± 0.00091
350 K, 552.81 kPa | 0.01768 ± 0.00091
350 K, 579.7 kPa | 0.01769 ± 0.00091
350 K, 619.51 kPa | 0.01771 ± 0.00091
350 K, 654.26 kPa | 0.01772 ± 0.00091
350 K, 701.64 kPa | 0.01775 ± 0.00091
350 K, 739.48 kPa | 0.01775 ± 0.00091
350 K, 779.89 kPa | 0.01777 ± 0.00091
350 K, 809.98 kPa | 0.01779 ± 0.00091
350 K, 855.04 kPa | 0.0178 ± 0.00091
350 K, 900.26 kPa | 0.01782 ± 0.00091
350 K, 954.25 kPa | 0.01784 ± 0.00091
350 K, 997.88 kPa | 0.01787 ± 0.00091
350 K, 1051.5 kPa | 0.0179 ± 0.00091
350 K, 1146.2 kPa | 0.01795 ± 0.00091
350 K, 1196.5 kPa | 0.01798 ± 0.00091
350 K, 1265.4 kPa | 0.01803 ± 0.00091
350 K, 1341.2 kPa | 0.01807 ± 0.00092
350 K, 1392.7 kPa | 0.01811 ± 0.00092
350 K, 1473.1 kPa | 0.01816 ± 0.00092
350 K, 1546.1 kPa | 0.01821 ± 0.00092
350 K, 1621.8 kPa | 0.01827 ± 0.00092
350 K, 1656.3 kPa | 0.0183 ± 0.00092
350 K, 1713.2 kPa | 0.01835 ± 0.00092
350 K, 1840 kPa | 0.01844 ± 0.00092
350 K, 1888.3 kPa | 0.01849 ± 0.00092
350 K, 1964.6 kPa | 0.01856 ± 0.00092
350 K, 2005.9 kPa | 0.01861 ± 0.00092
350 K, 2043.2 kPa | 0.01864 ± 0.00092
350 K, 2108.6 kPa | 0.01871 ± 0.00092
350 K, 2309.3 kPa | 0.01893 ± 0.00092
350 K, 2394 kPa | 0.01903 ± 0.00092
350 K, 2449.2 kPa | 0.01908 ± 0.00092
350 K, 2505.1 kPa | 0.01916 ± 0.00092
350 K, 2608.1 kPa | 0.01929 ± 0.00092
350 K, 2657.7 kPa | 0.01936 ± 0.00093
350 K, 2798.4 kPa | 0.01957 ± 0.00093
350 K, 2900.4 kPa | 0.01971 ± 0.00093
350 K, 2978.2 kPa | 0.01986 ± 0.00093
350 K, 3047.1 kPa | 0.01996 ± 0.00093
350 K, 3125.3 kPa | 0.0201 ± 0.00093
350 K, 3224.5 kPa | 0.02028 ± 0.00093
350 K, 3319.6 kPa | 0.02047 ± 0.00093
350 K, 3405.3 kPa | 0.02064 ± 0.00094
350 K, 3504.4 kPa | 0.02085 ± 0.00094
350 K, 3655.4 kPa | 0.02123 ± 0.00094
350 K, 3748 kPa | 0.02146 ± 0.00094
350 K, 3869.5 kPa | 0.02179 ± 0.00094
350 K, 3987.5 kPa | 0.02211 ± 0.00095
350 K, 4143 kPa | 0.02261 ± 0.00095
350 K, 4307.3 kPa | 0.02322 ± 0.00096
350 K, 4473.2 kPa | 0.02386 ± 0.00096
350 K, 4598.1 kPa | 0.02443 ± 0.00096
350 K, 4732.9 kPa | 0.02508 ± 0.00097
350 K, 4848.3 kPa | 0.02571 ± 0.00097
350 K, 4964.3 kPa | 0.02637 ± 0.00098
350 K, 5096.1 kPa | 0.02724 ± 0.00099
350 K, 5208.7 kPa | 0.02806 ± 0.00099
350 K, 5327.4 kPa | 0.02902 ± 0.001
350 K, 5431.3 kPa | 0.02995 ± 0.001
350 K, 5524.2 kPa | 0.03078 ± 0.001
350 K, 5638.8 kPa | 0.03189 ± 0.001
350 K, 5741 kPa | 0.03299 ± 0.001
350 K, 5850 kPa | 0.03434 ± 0.001
350 K, 5956.2 kPa | 0.03561 ± 0.0011
350 K, 6067.6 kPa | 0.03706 ± 0.0011
350 K, 6177.6 kPa | 0.03857 ± 0.0011
350 K, 6280.8 kPa | 0.03995 ± 0.0011
350 K, 6385.1 kPa | 0.04139 ± 0.0011
350 K, 6510.8 kPa | 0.04319 ± 0.0012
350 K, 6635.4 kPa | 0.04497 ± 0.0011
350 K, 6769.6 kPa | 0.04684 ± 0.0011
350 K, 6918.8 kPa | 0.04891 ± 0.0012
350 K, 7076.5 kPa | 0.05108 ± 0.0012
350 K, 7230 kPa | 0.05306 ± 0.0012
350 K, 7408.1 kPa | 0.05532 ± 0.0012
350 K, 7592 kPa | 0.05755 ± 0.0012
350 K, 7767.3 kPa | 0.05957 ± 0.0012
350 K, 8006.2 kPa | 0.06218 ± 0.0013
350 K, 8297.4 kPa | 0.06505 ± 0.0013
350 K, 8558.7 kPa | 0.06754 ± 0.0013
350 K, 8849.5 kPa | 0.07028 ± 0.0013
350 K, 9294 kPa | 0.07399 ± 0.0014
350 K, 9823.4 kPa | 0.07814 ± 0.0014
350 K, 10614 kPa | 0.08354 ± 0.0015
350 K, 11424 kPa | 0.08869 ± 0.0015
350 K, 12301 kPa | 0.09386 ± 0.0016
375 K, 72.56 kPa | 0.01862 ± 0.00092
375 K, 103.02 kPa | 0.01864 ± 0.00092
375 K, 132.08 kPa | 0.01864 ± 0.00092
375 K, 156.74 kPa | 0.01865 ± 0.00092
375 K, 183.32 kPa | 0.01866 ± 0.00092
375 K, 219.98 kPa | 0.01868 ± 0.00092
375 K, 258.3 kPa | 0.01869 ± 0.00092
375 K, 282.8 kPa | 0.0187 ± 0.00092
375 K, 308.36 kPa | 0.01871 ± 0.00092
375 K, 342.15 kPa | 0.01871 ± 0.00092
375 K, 371.36 kPa | 0.01872 ± 0.00092
375 K, 403.52 kPa | 0.01873 ± 0.00092
375 K, 435.36 kPa | 0.01874 ± 0.00092
375 K, 464.82 kPa | 0.01875 ± 0.00092
375 K, 499.73 kPa | 0.01876 ± 0.00092
375 K, 539.14 kPa | 0.01878 ± 0.00092
375 K, 563.93 kPa | 0.01878 ± 0.00092
375 K, 612.98 kPa | 0.0188 ± 0.00092
375 K, 661.4 kPa | 0.01882 ± 0.00092
375 K, 695.12 kPa | 0.01884 ± 0.00092
375 K, 746.7 kPa | 0.01886 ± 0.00092
375 K, 805.08 kPa | 0.01888 ± 0.00092
375 K, 855.26 kPa | 0.0189 ± 0.00092
375 K, 917.96 kPa | 0.01894 ± 0.00092
375 K, 999.57 kPa | 0.01897 ± 0.00092
375 K, 1067.6 kPa | 0.01901 ± 0.00092
375 K, 1146.8 kPa | 0.01905 ± 0.00092
375 K, 1211.3 kPa | 0.01909 ± 0.00092
375 K, 1302.5 kPa | 0.01914 ± 0.00092
375 K, 1385 kPa | 0.01919 ± 0.00092
375 K, 1460.9 kPa | 0.01924 ± 0.00092
375 K, 1534.4 kPa | 0.01928 ± 0.00092
375 K, 1588.3 kPa | 0.01932 ± 0.00092
375 K, 1723.3 kPa | 0.01941 ± 0.00093
375 K, 1809.5 kPa | 0.01948 ± 0.00093
375 K, 1885.1 kPa | 0.01954 ± 0.00093
375 K, 1966.6 kPa | 0.01959 ± 0.00093
375 K, 2043 kPa | 0.01966 ± 0.00093
375 K, 2300.6 kPa | 0.0199 ± 0.00093
375 K, 2399.3 kPa | 0.01998 ± 0.00093
375 K, 2484.3 kPa | 0.02006 ± 0.00093
375 K, 2587.3 kPa | 0.02019 ± 0.00093
375 K, 2879.2 kPa | 0.02051 ± 0.00093
375 K, 3052.5 kPa | 0.02072 ± 0.00094
375 K, 3214.1 kPa | 0.02095 ± 0.00094
375 K, 3418.4 kPa | 0.02122 ± 0.00094
375 K, 3699.7 kPa | 0.02167 ± 0.00094
375 K, 3960.7 kPa | 0.02214 ± 0.00095
375 K, 4136.6 kPa | 0.02249 ± 0.00095
375 K, 4384.3 kPa | 0.02299 ± 0.00095
375 K, 4599 kPa | 0.02348 ± 0.00096
375 K, 4821 kPa | 0.02401 ± 0.00096
375 K, 5057 kPa | 0.02467 ± 0.00097
375 K, 5280.9 kPa | 0.02535 ± 0.00097
375 K, 5535.4 kPa | 0.02617 ± 0.00098
375 K, 5778.6 kPa | 0.02706 ± 0.00098
375 K, 6000.4 kPa | 0.02791 ± 0.00099
375 K, 6326.2 kPa | 0.02939 ± 0.001
375 K, 6677.7 kPa | 0.03112 ± 0.001
375 K, 6887.6 kPa | 0.03224 ± 0.001
375 K, 7092.9 kPa | 0.03343 ± 0.001
375 K, 7293.5 kPa | 0.03466 ± 0.001
375 K, 7524.4 kPa | 0.03612 ± 0.0011
375 K, 7762.9 kPa | 0.0377 ± 0.0011
375 K, 7973.1 kPa | 0.03919 ± 0.0011
375 K, 8202 kPa | 0.04079 ± 0.0011
375 K, 8452.7 kPa | 0.04259 ± 0.0011
375 K, 8711.3 kPa | 0.04448 ± 0.0011
375 K, 8972.9 kPa | 0.04632 ± 0.0011
375 K, 9257.7 kPa | 0.04836 ± 0.0011
375 K, 9573.7 kPa | 0.05065 ± 0.0012
375 K, 9868.9 kPa | 0.05275 ± 0.0012
375 K, 10221 kPa | 0.05519 ± 0.0012
375 K, 10547 kPa | 0.05738 ± 0.0012
